Ten compounds from US10294262B2, “7-deazapurine nucleosides for therapeutic uses” (Institute of Organic Chemistry and Biochemistry ASCR, V.V.I., priority 2009, dated 2019) can be followed below.

One data set has as its system HCT116. The experiment in a line: Test A: Cytostatic cell culture assay (CC50), SRB, solid tumor cell lines. Format: cell-based. The note with it: Homo sapiens, HCT-116, 120 h, read-out: CC50 Colon HCT116. How it is done:
(§1) Gemcitabine is obtained from Moravek Biochemicals (Brea, Calif.)
(§2) • 1. […] Fix one plate of each cell line with TCA. […] Discard TCA from the plates by flicking them gently. […] Store the plates at room temperature. These plates represent cell counts on day zero. • 4. […] Add 50 μL of the diluted compounds per well. […] Fix the plates with TCA. […] Discard TCA from the plates by flicking them gently. […] Leave at room temperature for 30 minutes. • 9. Flick the plates gently to discard SRB.

The test system of another data set is HS578. The data set is described as above. Format: cell-based. Particulars: Homo sapiens, Hs578, 120 h, read-out: CC50 Breast HS578. How it is done: as §1, §2
The next data set deals with NCI H23. The description is as above. Format: cell-based. The note with it: Homo sapiens, NCI-H23, 120 h, read-out: CC50 Lung NCI H23. As for the experimental part: as §1, §2
The subject of a further data set is PC3. Described as above. The data set is classed as cell-based. The note with it: Homo sapiens, PC-3, 120 h, read-out: CC50 Prostate PC3. As for the experimental part:
as §1, §2

Another data set deals with human tumor cell lines. The experiment in a line: Tests A and B, all tumor cell lines together. The note with it: read-out: CC50 Geometric mean all. Format: cell-based. As for the experimental part:
as §2
Plates were incubated for 5 days with tested compounds.

Data set [1] has as its system MT-4 T-lymphoid cell line. The experiment in a line: Test B: Cytostatic cell culture assay (CC50), CellTiter Glo, lymphoid tumor cell lines. Particulars: Homo sapiens, MT4, 120 h, read-out: CC50 T-lymphoid MT-4. Background: Cellular ATP, detected with luciferase, serves as a proxy for viable cell number.
Description: Test B: Cytostatic Cell Culture Assay (CC50) for Lymphoid Tumor Cell Lines
This test is typically performed with cell lines that are derived from hematological tumors and grow in suspension. An example of such cell line is human MT-4 T-lymphoid cell line used for the determination of cytostatic activity of tested compounds. […] Cells were passaged in suspension twice a week and maintained at densities below 500,000 cells/mL. For CC50 determination, cells were seeded into 384-well plates at 2,000 cells/well in 20 μL of culture medium. Compounds were serially diluted in culture medium and added in triplicate to a final assay volume of 40 μL/well. Plates were incubated for 5 days with tested compounds. At the end of incubation, cell viability was determined by addition of 40 μL of CellTiter Glo reagent followed by a luminescence read-out.
Data analysis and CC50 value calculations were done using GraphPad Prism software (GraphPad Software, San Diego, Calif.) by applying nonlinear regression.
The next data set deals with A549. The experiment in a line: Test A: Cytostatic cell culture assay (CC50), SRB, solid tumor cell lines. Particulars: Homo sapiens, A549, 120 h, read-out: CC50 Lung A549. An excerpt: Test A: Cytostatic Cell Culture Assay (CC50) for Solid Tumor Cell Lines
This assay is based on quantification of cell mass determination by a colorimetric detection of the cell associated proteins. The assay relies on the ability of sulforhodamine B (SRB) to bind to protein components of cells that have been fixed to tissue-culture plates by trichloroacetic acid (TCA). SRB is a bright-pink aminoxanthene dye with two sulfonic groups that bind to basic amino-acid residues under mild acidic conditions, and dissociate under basic conditions. As the binding of SRB is stochiometric, the amount of dye extracted from stained cells is directly proportional to the cell mass.
Cell lines: All cell lines are obtained from ATCC (Manassas, Va.). Cultivation media containing Glutamax, and trypsin are purchased from Invitrogen (Carlsbad, Calif.). Doxorubicin, Tubercidin, Clofarabine, TCA and SRB are from Sigma-Aldrich (St. Louis, Mo.). Gemcitabine is obtained from Moravek Biochemicals (Brea, Calif.)
• 1. Trypsinize the sub-confluent cells, count them, and adjust the cell concentrations according to the cell counts listed in Table 1. • 2. Distribute the cells into the 96-well plates in 150 μL of media. Incubate the plates overnight in humidified CO2 incubator at 37° C. • 3. Fix one plate of each cell line with TCA. Discard the cultivation media from the plates by flicking them gently and add 100 μL cold 10% (vol/vol) TCA to each well. Incubate the plates at 4 degree refrigerator for 1 hour. Discard TCA from the plates by flicking them gently. Rinse plates four times in a washing basin containing tap water. Store the plates at room temperature. These plates represent cell counts on day zero. • 4. Prepare a set of medium solutions containing various concentrations of tested compounds by making 5-fold serial dilutions in 96-well plate. Add 50 μL of the diluted compounds per well. Include controls with untreated cells and cells treated with doxorubicin, tubercidin, clofarabine and/or gemcitabine. • 5. Incubate the plates for 5 days at 37° C. • 6. Fix the plates with TCA. Discard the cultivation media from the plates by flicking them gently and add 100 μL cold 10% (vol/vol) TCA to each well. Incubate the plates at 4 degree refrigerator for 1 hour. Discard TCA from the plates by flicking them gently. Rinse plates four times in a washing basin containing tap water. • 7. Remove excess water by tapping the plates face down, gently on a paper towel. Allow the plates to air-dry at room temperature. • 8. Add 100 μL of 0.057% SRB solution in 1% (vol/vol) acetic acid to each well of the plates fixed with TCA on day zero and five. Leave at room temperature for 30 minutes. • 9. Flick the plates gently to discard SRB. Rinse the plates four times with 1% (vol/vol) Acetic Acid. • 10. Store the plates at 37° incubator to facilitate faster drying. • 11. Once the plates are completely dry, add 200 μL of 10 mM Tris base solution (pH 10.5) to each well. Leave at room temperature for 30 minutes for SRB to solubilize. • 12. Measure the OD at 500 nm in a microplate reader. • 13. Calculate the percentage of cell-growth inhibition using the next formula: % of control cell growth=100×(ODsample−mean ODday0)/(ODneg control−mean ODday0). For CC50 determination, plot a dose-response curves between the compound concentration and percent of growth inhibition. CC50 values can be derived by fitting dose-response curves using sigmoidal dose response equation.

A further data set has as its system BT549. Described as above. The note with it: Homo sapiens, BT-549, 120 h; BT549 breast tumor cells, 5 days, SRB; read-out: CC50 Breast BT549. The data set is classed as cell-based. How it is done:
as §1, §2

The subject of the next data set is Du145. Described as above. The data set is classed as cell-based. Particulars: Homo sapiens, DU-145, 120 h, read-out: CC50 Prostate Du145. How it is done:
as §1, §2

The next data set deals with HCT15. The data set is described as above. The data set is classed as cell-based. The note with it: Homo sapiens, HCT-15, 120 h, read-out: CC50 Colon HCT15. How it is done:
as §1, §2

For `Nc1ncnc2c1c(-c1c[nH]nn1)cn2[C@@H]1O[C@H](CO)[C@@H](O)[C@H]1O` [Compound 2p, 4-Amino-7-(β-D-ribofuranosyl)-5-(1H-1,2,3-triazol-4-yl)-7H-pyrrolo[2,3-d]pyrimidine], the melting point lay within 286 to 288 °C. The cytotoxic concentration (CC50) in the data set with HCT116 is 4 nM. Moreover, the CC50 with HS578 was determined as 3 nM. Moreover, the CC50 in the data set on NCI H23 is 4 nM. For the same compound, the CC50 in the data set on PC3 stood at 5 nM. Further, in the data set with human tumor cell lines, the CC50 stood at 5.2 nM. Besides, the CC50 in data set [1] is 18 nM.

In turn, `Nc1ncnc2c1c(-c1ccc[nH]1)cn2[C@@H]1O[C@H](CO)[C@@H](O)[C@H]1O` [Compound 2k, 4-Amino-5-(1H-pyrrol-2-yl)-7-(β-D-ribofuranosyl)-7H-pyrrolo[2,3-d]pyrimidine] displayed a melting point of 205 to 207 °C. Moreover, the CC50 in the data set with A549 was determined as 160 nM. For the same compound, the CC50 with BT549 is 129 nM. For the same compound, the CC50 with HCT116 is 65.2 nM. Further, the CC50 with HS578 turned out to be 113 nM. For the same compound, in the data set with NCI H23, the CC50 amounted to 333 nM. The CC50 in the data set with PC3 was determined as 87.8 nM. Besides, in the data set with human tumor cell lines, the cytotoxic concentration (CC50) turned out to be 128 nM.

As to `COc1ccc(-c2cn([C@@H]3O[C@H](CO)[C@@H](O)[C@H]3O)c3ncnc(N)c23)cc1` [Compound 2b, 4-Amino-5-(4-methoxyphenyl)-7-(β-D-ribofuranosyl)-7H-pyrrolo[2,3-d]pyrimidine], the CC50 with A549 amounted to 701 nM; in the data set with Du145, 152 nM; in the data set with HCT116, 633 nM; in the data set on HCT15, 544 nM; in the data set with HS578, 811 nM; in the data set on NCI H23, 856 nM. Also, the CC50 worked out at 1110 nM with PC3, 768 nM with human tumor cell lines and 4300 nM in data set [1].

Regarding `Nc1ccn([C@@H]2O[C@H](CO)[C@@H](O)C2(F)F)c(=O)n1` [Gemcitabine, reference compound], the CC50 turned out to be 7 nM in the data set with A549; 1 nM with BT549; 3 nM with Du145; 2 nM in the data set with HCT116; 3 nM with HCT15; 1 nM with HS578. Besides, the 50% cytotoxic concentration (CC50) in the data set on NCI H23 came to 2 nM; in the data set on PC3, 6 nM; in the data set on human tumor cell lines, 2.4 nM; in data set [1], 2 nM.

In the case of `Nc1nc(Cl)nc2c1ncn2[C@@H]1O[C@H](CO)[C@@H](O)[C@@H]1F` [Clofarabine, reference compound], the 50% cytotoxic concentration (CC50) in the data set with A549 was determined as 86 nM; in the data set on Du145, 125 nM; in the data set on HCT116, 106 nM; in the data set on HCT15 it was 180 nM; in the data set on HS578, 1240 nM; with NCI H23 it was 40 nM. Moreover, the cytotoxic concentration (CC50) came to 63 nM in the data set on PC3, 116 nM in the data set on human tumor cell lines and 51 nM in data set [1].

Consider `Nc1ncnc2c1c(-c1cccs1)cn2[C@@H]1O[C@H](CO)[C@@H](O)[C@H]1O` [Compound 2g, 4-Amino-7-(β-D-ribofuranosyl)-5-(thiophen-2-yl)-7H-pyrrolo[2,3-d]pyrimidine], for which the CC50 in the data set on A549 amounted to 7 nM; with Du145, 133 nM; in the data set with HCT116, 2.6 nM; in the data set on HCT15, 11 nM; in the data set on HS578 it was 12 nM; with NCI H23 it was 3.7 nM. The half-maximal cytotoxic concentration (CC50) in the data set on PC3 came to 1620 nM; in the data set with human tumor cell lines, 22.6 nM; in data set [1], 35 nM.

Consider `Nc1ncnc2c1c(-c1cc[nH]n1)cn2[C@@H]1O[C@H](CO)[C@@H](O)[C@H]1O` [Compound 2n, 4-Amino-5-(1H-pyrazol-3-yl)-7-(β-D-ribofuranosyl)-7H-pyrrolo[2,3-d]pyrimidine], for which the melting point turned out to be 135 °C. Further, the CC50 in the data set on HCT116 was determined as 18 nM. Besides, the CC50 in the data set with HS578 was found to be 8 nM. Besides, in the data set on NCI H23, the CC50 was 35 nM. Also, the CC50 in the data set with PC3 came to 15 nM. In addition, in the data set with human tumor cell lines, the CC50 stood at 17.1 nM. The CC50 in [1] was determined as 18 nM.

As for `Nc1ncnc2c1c(-c1ccco1)cn2[C@@H]1O[C@H](CO)[C@@H](O)[C@H]1O` [Compound 2f, 4-Amino-5-(furan-2-yl)-7-(β-D-ribofuranosyl)-7H-pyrrolo[2,3-d]pyrimidine], the CC50 in the data set on A549 was 35 nM; in the data set on Du145, 19 nM; in the data set with HCT116, 48 nM; with HCT15 it was 3 nM; in the data set with HS578, 17 nM; in the data set on NCI H23, 294 nM. The values for the CC50 (in the data set on PC3; in the data set on human tumor cell lines; in data set [1]) were 4 nM, 25.6 nM and 86 nM, respectively.

`Nc1ncnc2c1c(-c1ncc[nH]1)cn2[C@@H]1O[C@H](CO)[C@@H](O)[C@H]1O` [Compound 2s, 4-Amino-5-(1H-imidazol-2-yl)-7-(β-D-ribofuranosyl)-7H-pyrrolo[2,3-d]pyrimidine] registered a melting point of 153 to 156 °C. The CC50 in the data set on HCT116 was found to be 2 nM. Further, in the data set on HS578, the CC50 was determined as 1 nM. The CC50 in the data set with NCI H23 amounted to 6 nM. In addition, in the data set with PC3, the CC50 was found to be 1 nM. The cytotoxic concentration (CC50) in the data set on human tumor cell lines was determined as 3.8 nM. Further, the CC50 in [1] amounted to 49 nM.

For the compound `Nc1ncnc2c1ccn2[C@@H]1O[C@H](CO)[C@@H](O)[C@H]1O` [Tubercidin, reference compound], the CC50 in the data set with A549 turned out to be 1 nM; in the data set with Du145, 18 nM; in the data set with HCT116, 1 nM; with HCT15, 11 nM; in the data set on HS578, 98 nM; in the data set on NCI H23 it was 11 nM. The results for the CC50 (with PC3; with human tumor cell lines; in data set [1]) were 48 nM, 10.3 nM and 21 nM, respectively.

One may read the CC50 as the concentration giving 50% cytotoxicity. The term melting point denotes the temperature of the solid-liquid transition.
